In patent US11926628B2 (Gilead Sciences, Inc., priority 2021, dated 2024):

What was measured:
human DGKα = human DGKα (Homo sapiens (Human), UniProt P23743); assay: DGKα Biochemical Activity Assay (ADP-Glo); details: recombinant DGKα 1 nM, 100 μM ATP, 18:1 DAG/POPS/octylglucoside micelles, 1 hour at 25° C.; geometric mean; read-out: HTBS DGKa 1X ATP KM IC50
Description: Alternatively, the enzymatic activity of human DGKα was monitored in a biochemical assay in the presence or absence of compounds and using micelles containing 18:1 Diacylglycerol (DAG), 16:0-18:1 PS (POPS) and Octylglucoside as substrate. DGKα activity led to conversion of DAG and ATP to Phosphatidic Acid (PA) and ADP. Levels of ADP were monitored by bioluminescence using the ADP-Glo Kinase Assay (Promega) and were indicative of DGKα activity.
Ten nanoliters of test compound dissolved in DMSO at various concentrations were dispensed into a 384-well low volume nonbinding service white plates (Corning #3824) using a Labcyte Echo instrument. Recombinant DGKα (Carna Biosciences) in assay buffer (5 μL in 50 mM MOPS [3-(N-morpholino) propanesulfonic acid], pH 7.2; 0.0025% Triton X-100; 1 mM dithiothreitol; 5 mM MgCl2, 200 μM ATP) was added to the compound-containing plate and was incubated for 15 minutes at 25° C. A substrate solution (5 μL in 1.7 mM 1,2-dioleoyl-sn-glycerol [18:1 DAG], 13.5 mM 1-palmitoyl-2-oleoyl-sn-glycero-3-phospho-L-serine [16:0-18:1 PS](POPS), 2 μM CaCl2, 100 mM Octylglucoside (OG), 1 mM DTT) (obtained from Carna Biosciences) diluted in DGK ALPHA assay buffer was then added to start the reaction. Final concentrations were 1 nM DGKα, 100 μM ATP, 1 μM calcium chloride, 0.85 mM 1,2-dioleoyl-sn-glycerol (18:1 DAG), 6.75 mM 1-palmitoyl-2-oleoyl-sn-glycero-3-phospho-L-serine (16:0-18:1 PS) (POPS), 1 μM CaCl2), 50 mM Octylglucoside (OG) and 5 mM MgCl2. The reaction mixture was incubated at 25° C. for 1 hour. ADP-Glo Reagent (10 μL, 10 mM Mg added) provided by the kit was added to each well and incubated at 25° C. for 40 minutes. Then, 20 μL of Kinase Detection Reagent was added and incubated at 25° C. for 40 minutes. Luciferase activity of each well was measured via luminescence on an Envision plate reader (PerkinElmer).
Data were normalized based on maximum inhibition (50 μM of kinase inhibitor CU3) and no inhibition (DMSO) controls. Least squares curve fittings were performed using a four-parameter variable slope nonlinear regression model. IC50 was defined as the concentration of compound required to inhibit 50% of maximum activity. IC50 values from multiple experiments were averaged by geometric mean and the standard deviation was calculated.

[1] = tested on: Jurkat NFκB-luciferase cells; assay: Jurkat NFκB-Luciferase Assay; assay type: cell-based; details: Homo sapiens; Jurkat NFκB-luciferase cells activated with anti-CD3 antibody (OKT3), 2.5 hrs at 37° C.; geometric mean; read-out: DGK NFKb Luciferase EC50
Procedure: The activity of compounds was tested in a cell based NFκB reporter assay. Jurkat cells that are stably expressing a luciferase reporter construct under the transcriptional control of a NFκB reporter element were activated with an anti-CD3 antibody and luciferase levels were measured with a bioluminescence readout. An increase in the levels of bioluminescence was indicative of enhanced T-cell activation following DGKα inhibition by the compound.
Flat-bottom polystyrene plates (384-well, tissue culture treated) were coated overnight at 4° C. with 20 ul/well of a solution of phosphate-buffered saline supplemented with 5 ug/ml anti-CD3 antibody (clone OKT3, Biolegend). The day after, the excess antibody was washed out five times with 100 ul/well of assay medium (RPMI supplemented with 10% fetal bovine serum) using a Biotek EL406 instrument and leaving 20 ul of residual volume in each well. Jurkat NFκB-luciferase cells (Promega #) were harvested and diluted to 1 million cells/ml in assay medium. Sixty nanoliters of test compound dissolved in DMSO at various concentrations were dispensed into 384-well v-bottom polypropylene plates (Greiner) using a Labcyte Echo instrument. Thirty microliters of medium containing the Jurkat NFκB-luciferase cells were then dispensed using a Biotek MicroFlo instrument in each well of the compound-containing plate. The medium/cell/compound mixture was mixed with a Bravo instrument and 20 ul/well of the mixture was transferred to the anti-CD3-coated plate. The assay mixture was then incubated for 2.5 hrs at 37° C. followed by equilibration at 25° C. for 30 min. Forty microliters of One-Glo Ex (Promega) was then added to the assay mixture and luciferase activity was read on a Envision plate reader 7 minutes later.
Bioluminescence data were normalized based on maximum enhancement (1 micromolar of compound) and on basal activation (DMSO) controls. Least squares curve fittings were performed using a four-parameter variable slope nonlinear regression model. EC50 is defined as the concentration of compound required to produce 50% of maximum NFκB luciferase signal. EC50 values from multiple experiments were averaged by geometric mean and the standard deviation was calculated.

Chain of human DGKα (P23743 whole entry): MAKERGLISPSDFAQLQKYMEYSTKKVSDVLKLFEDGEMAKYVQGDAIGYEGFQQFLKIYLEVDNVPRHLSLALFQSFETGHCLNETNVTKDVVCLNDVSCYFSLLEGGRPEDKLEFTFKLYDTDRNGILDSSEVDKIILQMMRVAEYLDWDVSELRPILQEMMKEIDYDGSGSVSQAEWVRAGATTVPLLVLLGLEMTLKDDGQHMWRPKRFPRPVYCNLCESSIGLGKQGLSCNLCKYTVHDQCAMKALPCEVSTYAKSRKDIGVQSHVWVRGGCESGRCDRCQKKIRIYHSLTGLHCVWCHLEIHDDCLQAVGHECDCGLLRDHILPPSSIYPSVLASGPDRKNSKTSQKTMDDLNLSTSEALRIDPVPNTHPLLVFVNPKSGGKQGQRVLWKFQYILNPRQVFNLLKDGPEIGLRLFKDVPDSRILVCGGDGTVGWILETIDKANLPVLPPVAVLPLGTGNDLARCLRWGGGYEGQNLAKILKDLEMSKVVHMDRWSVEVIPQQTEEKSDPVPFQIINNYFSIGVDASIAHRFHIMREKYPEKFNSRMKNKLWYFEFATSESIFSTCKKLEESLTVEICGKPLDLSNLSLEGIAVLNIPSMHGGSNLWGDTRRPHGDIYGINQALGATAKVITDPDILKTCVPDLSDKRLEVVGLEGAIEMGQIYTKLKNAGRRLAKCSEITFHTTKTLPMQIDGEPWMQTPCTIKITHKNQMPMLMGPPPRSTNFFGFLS

Compound | IC50 (human DGKα) [µM] | EC50 [1] [µM]
CC1(C#Cc2cc(F)cc(N(CC(F)F)c3nc4nncn4c4cncc(F)c34)c2)CC1 [Example 45, N-(2,2-difluoroethyl)-6-fluoro-N-(3-fluoro-5-((1-methylcyclopropyl)ethynyl)phenyl)pyrido[4,3-e][1,2,4]triazolo[4,3-a]pyrimidin-5-amine] | 0.0521 | 0.00267
CC(C)(C#Cc1cc(F)cc(N(CC(F)F)c2nc3nncn3c3cncc(F)c23)c1)C(F)(F)F [Example 46, N-(2,2-difluoroethyl)-6-fluoro-N-(3-fluoro-5-(4,4,4-trifluoro-3,3-dimethylbut-1-yn-1-yl)phenyl)pyrido[4,3-e][1,2,4]triazolo[4,3-a]pyrimidin-5-amine] | 0.0409 | 0.00334
Fc1cc(C#CC2(C(F)(F)F)CC2)cc(N(CC(F)F)c2nc3nncn3c3cncc(F)c23)c1 [Example 47, N-(2,2-difluoroethyl)-6-fluoro-N-(3-fluoro-5-((1-(trifluoromethyl)cyclopropyl)ethynyl)phenyl)pyrido[4,3-e][1,2,4]triazolo[4,3-a]pyrimidin-5-amine] | 0.0507 | 0.00427
Cc1nnc2nc(N(CC(F)F)c3cc(F)cc(C#CC(C)(C)O)c3)c3c(F)cncc3n12 [Example 48, 4-(3-((2,2-difluoroethyl)(6-fluoro-1-methylpyrido[4,3-e][1,2,4]triazolo[4,3-a]pyrimidin-5-yl)amino)-5-fluorophenyl)-2-methylbut-3-yn-2-ol] | 0.0489 | 0.0972
Cc1nnc2nc(N(CC(F)F)c3ccnc(C#CC(C)(C)O)c3)c3c(F)cncc3n12 [Example 52, 4-(4-((2,2-difluoroethyl)(6-fluoro-1-methylpyrido[4,3-e][1,2,4]triazolo[4,3-a]pyrimidin-5-yl)amino)pyridin-2-yl)-2-methylbut-3-yn-2-ol] | 0.204 | 1
CC(C)(O)C#Cc1cc(N(CC(F)F)c2nc3nncn3c3cncc(F)c23)ccn1 [Example 54, 4-(4-((2,2-difluoroethyl)(6-fluoropyrido[4,3-e][1,2,4]triazolo[4,3-a]pyrimidin-5-yl)amino)pyridin-2-yl)-2-methylbut-3-yn-2-ol] | 0.184 | 1
CN(c1cncc(-c2ccc(C3CC3)cc2)n1)c1nc2nncn2c2cnccc12 [Example 57, N-[6-(4-cyclopropylphenyl)pyrazin-2-yl]-N-methyl-2,4,5,7,12-pentazatricyclo[7.4.0.02,6]trideca-1(13),3,5,7,9,11-hexaen-8-amine] | 0.13 | 0.00991
CCN(c1cccc(-c2ccc(C3CC3)nc2)c1)c1nc2nncn2c2cnccc12 [Example 58, N-[3-(6-cyclopropyl-3-pyridyl)phenyl]-N-ethyl-2,4,5,7,12-pentazatricyclo[7.4.0.02,6]trideca-1(13),3,5,7,9,11-hexaen-8-amine] | 0.219 | 0.0289

Molecules with a lower IC50 (human DGKα), results first:

IC50 (human DGKα) [µM] | EC50 [1] [µM] | Compound
0.0262 | 0.00482 | Cc1nnc2nc(N3CCCc4c(C#CC5(C(F)(F)F)CC5)cncc43)c3c(F)cncc3n12 [Example 39, 6-fluoro-1-methyl-5-(5-((1-(trifluoromethyl)cyclopropyl)ethynyl)-3,4-dihydro-1,7-naphthyridin-1(2H)-yl)pyrido[4,3-e][1,2,4]triazolo[4,3-a]pyrimidine]
0.00792 | 0.00214 | Cc1nnc2nc(N3CCCc4c(C#CC5(C)CC5)cccc43)c3c(F)cncc3n12 [Example 40, 6-fluoro-1-methyl-5-(5-((1-methylcyclopropyl)ethynyl)-3,4-dihydroquinolin-1(2H)-yl)pyrido[4,3-e][1,2,4]triazolo[4,3-a]pyrimidine]
0.0354 | 0.043 | CC(C)(O)C#Cc1cc(F)cc(N(CC(F)F)c2nc3nncn3c3cncc(F)c23)c1 [Example 42, 4-(3-((2,2-difluoroethyl)(6-fluoropyrido[4,3-e][1,2,4]triazolo[4,3-a]pyrimidin-5-yl)amino)-5-fluorophenyl)-2-methylbut-3-yn-2-ol]
0.033 | 0.00548 | Fc1cc(C#CC2(C(F)F)CC2)cc(N(CC(F)F)c2nc3nncn3c3cncc(F)c23)c1 [Example 43, N-(2,2-difluoroethyl)-N-(3-((1-(difluoromethyl)cyclopropyl)ethynyl)-5-fluorophenyl)-6-fluoropyrido[4,3-e][1,2,4]triazolo[4,3-a]pyrimidin-5-amine]
0.0327 | 0.00193 | CC(C)(C)C#Cc1cc(F)cc(N(CC(F)F)c2nc3nncn3c3cncc(F)c23)c1 [Example 44, N-(2,2-difluoroethyl)-N-(3-(3,3-dimethylbut-1-yn-1-yl)-5-fluorophenyl)-6-fluoropyrido[4,3-e][1,2,4]triazolo[4,3-a]pyrimidin-5-amine]
0.0126 | 0.00605 | Cc1nnc2nc(N(CC(F)F)c3cc(F)cc(C#CC4(C)CC4)c3)c3c(F)cncc3n12 [Example 49, N-(2,2-difluoroethyl)-6-fluoro-N-(3-fluoro-5-((1-methylcyclopropyl)ethynyl)phenyl)-1-methylpyrido[4,3-e][1,2,4]triazolo[4,3-a]pyrimidin-5-amine]
0.013 | 0.00491 | Cc1nnc2nc(N(CC(F)F)c3cc(F)cc(C#CC(C)(C)C(F)(F)F)c3)c3c(F)cncc3n12 [Example 50, N-(2,2-difluoroethyl)-6-fluoro-N-(3-fluoro-5-(4,4,4-trifluoro-3,3-dimethylbut-1-yn-1-yl)phenyl)-1-methylpyrido[4,3-e][1,2,4]triazolo[4,3-a]pyrimidin-5-amine]
0.0362 | 0.00917 | Cc1nnc2nc(N(CC(F)F)c3cc(F)cc(C#CC4(C(F)(F)F)CC4)c3)c3c(F)cncc3n12 [Example 51, N-(2,2-difluoroethyl)-6-fluoro-N-(3-fluoro-5-((1-(trifluoromethyl)cyclopropyl)ethynyl)phenyl)-1-methylpyrido[4,3-e][1,2,4]triazolo[4,3-a]pyrimidin-5-amine]
0.016 | 0.0121 | Cc1nnc2nc(N(CC(F)F)c3ccnc(C#CC4(C(F)(F)F)CC4)c3)c3c(F)cncc3n12 [Example 53, N-(2,2-difluoroethyl)-6-fluoro-1-methyl-N-(2-((1-(trifluoromethyl)cyclopropyl)ethynyl)pyridin-4-yl)pyrido[4,3-e][1,2,4]triazolo[4,3-a]pyrimidin-5-amine]
0.0233 | 0.0281 | Fc1cncc2c1c(N(CC(F)F)c1ccnc(C#CC3(C(F)(F)F)CC3)c1)nc1nncn12 [Example 55, N-(2,2-difluoroethyl)-6-fluoro-N-(2-((1-(trifluoromethyl)cyclopropyl)ethynyl)pyridin-4-yl)pyrido[4,3-e][1,2,4]triazolo[4,3-a]pyrimidin-5-amine]
0.0186 | 0.109 | Cc1nnc2nc(N3CCOCc4c(C#CC5CN(C)CCO5)cccc43)c3c(F)cncc3n12 (centres unmarked) [Example 56, 1-(10-fluoro-3-methyl-2,4,5,7,12-pentazatricyclo[7.4.0.02,6]trideca-1(13),3,5,7,9,11-hexaen-8-yl)-6-[2-(4-methylmorpholin-2-yl)ethynyl]-3,5-dihydro-2H-4,1-benzoxazepine]
